Read-outs that look alike come from different tables or passages of the source.
Columns and labels:
[1] = test system: urinary urate excretion; assay: Urinary excretion of urate, fractional excretion of urate and xanthine; type: in vivo, patients with gout
[2] = test system: serum uric acid; assay: Serum uric acid lowering, phase 1b open-label multiple-dose study; type: in vivo, patients with gout; conditions: for serum uric acid: Change From Baseline, Emax (maximum percentage change from baseline in serum uric acid lowering) / serum uric acid: Change From Baseline, Predose / Subjects With Predose Serum Uric Acid <4 mg/dL / Subjects With Predose Serum Uric Acid <5 mg/dL / Subjects With Predose Serum Uric Acid <6 mg/dL: group 2; for serum uric acid: Change From Baseline, Emax (maximum percentage change from baseline in serum uric acid lowering) / serum uric acid: Change From Baseline, Predose: ALLO 300 mg/day alone (day 7), ALLO 300 mg/LESU 600 mg (day 14), LESU 600 mg/day alone (day 21), % (SE); for Subjects With Predose Serum Uric Acid <4 mg/dL / Subjects With Predose Serum Uric Acid <5 mg/dL / Subjects With Predose Serum Uric Acid <6 mg/dL: ALLO 300 mg/day alone (day 7, n = 10), ALLO 300 mg/LESU 600 mg (day 14, n = 10), LESU 600 mg/day alone (day 21, n = 9)
[3] = test system: URAT1; conditions: cited from earlier work
[4] = type: in vivo, patients with gout
[5] = ALLO 300 mg/LESU 400 mg versus ALLO 300 mg alone
[6] = ALLO 300 mg/LESU 600 mg versus ALLO 300 mg alone

SMILES: Oc1ncnc2[nH]ncc12 [allopurinol]
- decrease of 24‐hour urate excretion compared with baseline ([1]; allopurinol 300 mg alone): ~35%
- Mean 24‐hour urate excretion compared with baseline ([1]; allopurinol 300 mg/day alone): –35%
- effect on fractional excretion of urate ([1]; single agent): no effect
- effect on xanthine excretion (urine) ([1]; single agent): increased
- Emax (serum uric acid lowering) ([2]; allopurinol 300 mg (discussion)): −37%
- serum uric acid reduced by ([2]; allopurinol 300 mg/day alone (abstract)): 37%
- serum uric acid: Change From Baseline, Emax (maximum percentage change from baseline in serum uric acid lowering) [2]: −35.1 (2.3) %
- serum uric acid: Change From Baseline, Predose [2]: −28.7 (2.4) %
- Subjects With Predose Serum Uric Acid <4 mg/dL [2]: 0 n (%)
- Subjects With Predose Serum Uric Acid <5 mg/dL [2]: 1 (10) n (%)
- Subjects With Predose Serum Uric Acid <6 mg/dL [2]: 3 (30) n (%)

SMILES: O=C(O)CSc1nnc(Br)n1-c1ccc(C2CC2)c2ccccc12 [lesinurad]
- effect on xanthine excretion (urine) ([1]; single agent): no significant effect
- serum uric acid: Change From Baseline, Emax (maximum percentage change from baseline in serum uric acid lowering) [2]: −46.7 (5.5) %
- serum uric acid: Change From Baseline, Predose [2]: −37.2 (1.6) %
- Subjects With Predose Serum Uric Acid <4 mg/dL [2]: 0 n (%)
- Subjects With Predose Serum Uric Acid <5 mg/dL [2]: 3 (33) n (%)
- Subjects With Predose Serum Uric Acid <6 mg/dL [2]: 6 (67) n (%)
- serum uric acid reduced by ([2]; lesinurad 400 mg/day, added to allopurinol 300 mg/day or alone (abstract)): 44%
- serum uric acid reduced by ([2]; lesinurad 600 mg/day, added to allopurinol 300 mg/day or alone (abstract)): 47%

SMILES: O=c1[nH]c(=O)c2c[nH]nc2[nH]1 [oxypurinol]
- transporter substrate [3]: substrate of URAT1
- Oxypurinol AUC0‐24 Geometric Mean Ratio (90%CI) (Combination/Alone) [4, 5]: 74.2 (65.1‐84.7)
- Oxypurinol Cmax Geometric Mean Ratio (90%CI) (Combination/Alone) [4, 5]: 79.4 (69.8‐90.3)
- Oxypurinol AUC0‐24 Geometric Mean Ratio (90%CI) (Combination/Alone) [4, 6]: 64.7 (61.3‐68.3)
- Oxypurinol Cmax Geometric Mean Ratio (90%CI) (Combination/Alone) [4, 6]: 71.7 (67.8‐75.7)
- Decrease of oxypurinol plasma concentrations ([4]; during co-administration of lesinurad 400 mg with allopurinol 300 mg): approximately 26%
- Decrease of oxypurinol plasma concentrations ([4]; during co-administration of lesinurad 600 mg with allopurinol 300 mg): ~35%
- Cmax ([4]; human, plasma, oral, Oxypurinol Cmax, ALLO 300 mg/LESU 600 mg co-administration, geometric mean, n = 10): 9.66 µg/mL
- Oxypurinol Tmax ([4]; plasma, ALLO 300 mg alone, group 1 (before LESU 400 mg), median (range), n = 10): 4.00 (3.00‐6.00) h
- Oxypurinol Cmax ([4]; plasma, ALLO 300 mg/LESU 400 mg co-administration, geometric mean, n = 10): 9.82 (8.66‐11.1) μg/mL

From PMC6099238 (Journal of Clinical Pharmacology, 2018)
